These sequences were tested against TcdA (Clostridioides difficile, UniProt P16154). Conditions: peptides on beads; 0.2 µM TcdA-AF594; qualitative.
TcdA, sequence (P16154 whole entry, looked up): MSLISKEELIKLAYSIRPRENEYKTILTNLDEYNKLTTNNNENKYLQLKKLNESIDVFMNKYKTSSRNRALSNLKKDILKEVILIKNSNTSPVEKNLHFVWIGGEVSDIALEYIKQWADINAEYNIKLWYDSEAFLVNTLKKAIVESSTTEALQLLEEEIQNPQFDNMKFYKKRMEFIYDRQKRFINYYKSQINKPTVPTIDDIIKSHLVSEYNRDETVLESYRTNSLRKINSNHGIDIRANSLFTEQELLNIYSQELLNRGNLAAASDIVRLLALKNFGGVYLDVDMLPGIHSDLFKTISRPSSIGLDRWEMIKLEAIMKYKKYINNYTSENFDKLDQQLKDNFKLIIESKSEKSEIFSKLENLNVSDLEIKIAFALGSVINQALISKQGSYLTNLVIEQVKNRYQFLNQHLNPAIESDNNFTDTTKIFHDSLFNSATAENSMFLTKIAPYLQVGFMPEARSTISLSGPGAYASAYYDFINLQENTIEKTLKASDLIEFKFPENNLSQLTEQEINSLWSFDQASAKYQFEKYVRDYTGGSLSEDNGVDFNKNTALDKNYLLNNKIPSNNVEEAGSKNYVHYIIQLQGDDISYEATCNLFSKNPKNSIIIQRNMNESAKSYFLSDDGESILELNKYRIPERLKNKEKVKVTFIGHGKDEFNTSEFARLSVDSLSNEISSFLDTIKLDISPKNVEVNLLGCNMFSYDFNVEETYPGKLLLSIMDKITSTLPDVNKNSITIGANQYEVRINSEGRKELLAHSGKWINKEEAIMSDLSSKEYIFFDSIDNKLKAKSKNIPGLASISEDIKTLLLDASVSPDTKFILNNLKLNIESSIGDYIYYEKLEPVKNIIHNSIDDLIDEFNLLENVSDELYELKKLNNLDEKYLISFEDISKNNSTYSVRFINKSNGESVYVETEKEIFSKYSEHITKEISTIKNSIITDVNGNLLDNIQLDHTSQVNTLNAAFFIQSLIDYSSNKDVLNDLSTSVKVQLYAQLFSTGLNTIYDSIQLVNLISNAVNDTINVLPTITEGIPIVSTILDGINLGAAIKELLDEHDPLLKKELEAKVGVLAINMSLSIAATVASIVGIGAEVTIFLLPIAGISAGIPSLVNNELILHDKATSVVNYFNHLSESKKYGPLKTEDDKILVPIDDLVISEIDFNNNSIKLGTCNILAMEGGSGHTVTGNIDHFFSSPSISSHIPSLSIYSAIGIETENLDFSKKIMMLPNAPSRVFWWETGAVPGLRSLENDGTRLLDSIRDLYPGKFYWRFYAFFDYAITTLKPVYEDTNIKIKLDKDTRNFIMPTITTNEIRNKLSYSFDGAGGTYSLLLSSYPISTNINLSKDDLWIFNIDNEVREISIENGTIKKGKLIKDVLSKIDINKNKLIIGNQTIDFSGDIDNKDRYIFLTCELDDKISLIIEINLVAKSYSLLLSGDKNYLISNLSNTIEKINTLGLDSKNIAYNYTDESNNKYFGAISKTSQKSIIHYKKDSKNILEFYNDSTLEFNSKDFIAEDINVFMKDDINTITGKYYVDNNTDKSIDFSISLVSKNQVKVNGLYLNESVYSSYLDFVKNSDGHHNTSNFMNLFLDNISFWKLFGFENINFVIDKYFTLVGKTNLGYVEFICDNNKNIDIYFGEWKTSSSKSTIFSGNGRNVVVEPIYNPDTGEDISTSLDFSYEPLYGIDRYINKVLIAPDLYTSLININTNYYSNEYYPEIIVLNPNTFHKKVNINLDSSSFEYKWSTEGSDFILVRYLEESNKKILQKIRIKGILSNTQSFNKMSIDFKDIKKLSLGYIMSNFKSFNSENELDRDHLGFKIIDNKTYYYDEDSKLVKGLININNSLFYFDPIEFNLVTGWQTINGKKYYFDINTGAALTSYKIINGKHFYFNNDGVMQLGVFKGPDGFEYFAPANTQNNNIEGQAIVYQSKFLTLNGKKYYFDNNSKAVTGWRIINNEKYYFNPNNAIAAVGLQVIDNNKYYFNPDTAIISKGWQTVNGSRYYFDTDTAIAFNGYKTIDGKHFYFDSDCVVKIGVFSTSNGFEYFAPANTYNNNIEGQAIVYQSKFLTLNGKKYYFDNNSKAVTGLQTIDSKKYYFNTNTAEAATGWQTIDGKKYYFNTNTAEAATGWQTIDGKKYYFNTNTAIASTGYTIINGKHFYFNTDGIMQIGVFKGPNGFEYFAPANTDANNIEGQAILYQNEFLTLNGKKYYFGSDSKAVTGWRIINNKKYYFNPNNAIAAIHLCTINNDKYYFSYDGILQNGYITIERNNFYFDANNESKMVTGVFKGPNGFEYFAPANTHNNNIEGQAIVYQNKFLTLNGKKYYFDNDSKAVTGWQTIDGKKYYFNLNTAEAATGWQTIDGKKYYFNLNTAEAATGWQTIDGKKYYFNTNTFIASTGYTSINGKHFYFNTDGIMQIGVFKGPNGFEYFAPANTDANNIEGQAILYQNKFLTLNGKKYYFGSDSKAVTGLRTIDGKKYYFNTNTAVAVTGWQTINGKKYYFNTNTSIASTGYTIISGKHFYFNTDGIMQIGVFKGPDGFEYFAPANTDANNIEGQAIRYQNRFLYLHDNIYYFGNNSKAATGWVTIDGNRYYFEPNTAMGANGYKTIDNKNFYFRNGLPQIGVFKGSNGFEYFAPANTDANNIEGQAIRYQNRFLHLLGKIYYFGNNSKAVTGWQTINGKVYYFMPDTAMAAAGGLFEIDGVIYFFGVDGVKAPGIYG

Sequence	TcdA binding performance in bead-based screen
EFWMGRHH [SA5]	performed significantly better than those from Case 3 (SA6, SA7)
MFWEHRHR [SA4]	performed significantly better than those from Case 3 (SA6, SA7)
QDWMRRHW [SA2]	performed significantly better than those from Case 3 (SA6, SA7)
